From patent US5906820A, “Epidermal growth factor receptor targeted molecules for treatment of inflammatory arthritis” (priority 1997, dated 1999)

Test system: A431 cells
Assay: Protein synthesis ([3H]leucine incorporation) assay: inhibition of DAB389 EGF cytotoxicity by chloroquine
Conditions: for % of control Protein Synthesis, + Chloroquine: relative to chloroquine treatment alone

CCN(CC)CCCC(C)Nc1ccnc2cc(Cl)ccc12 (stereo not shown) [Chloroquine, chloroquine]
% of control Protein Synthesis, + Chloroquine (A431 cells, chloroquine 10 μM with DAB389 EGF 1 pm, 20 hr): 100%
% of control Protein Synthesis, + Chloroquine (A431 cells, chloroquine 10 μM with DAB389 EGF 10 pm, 20 hr): 61%
blocking of the cytotoxicity of DAB389 EGF (A431 cells, chloroquine 10 μM, 20 hr): completely blocked
inhibition at 10 µM (Homo sapiens, A-431, 20 h, read-out: reduction of protein synthesis by chloroquine treatment alone): 27%
